Like-named read-outs stand apart in the source and are kept apart here.
Key:
[1] = system: human intestinal epithelial cells (FHs 74 Int); test: CCK-8 cell viability: alleviation of proliferative toxicity of anti-tumor agents on FHs 74 Int (Table 8-4); type: cell-based; conditions: NO-NSAID 100 μM
Procedure, shortened: (§1)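 Cells seeded at 5,000-10,000 per well and exposed to anti-tumor agent (DMSO solvent) alone or with NO-NSAID (ethanol or water solvent), with solvent controls used for correction. Viability read by CCK-8 after 24-48 hours; proliferative toxicity and its alleviation compared by t test.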

[2] = system: hand-foot syndrome caused by anti-tumor agents; test: Treatment of established hand-foot syndrome caused by anti-tumor agents in rats (Table 4); type: in vivo; conditions: Days 7
Procedure, shortened: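 Rats (about 200 g), 10 per group, given anti-tumor agent by gavage (Cremophor EL:ethanol 1:1, diluted about 3 times with PBS), treated for established hand-foot syndrome with NO-NSAID ointment. Control rate is the blank-group incidence minus the treatment-group incidence.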

[3] = system: gastric epithelial cells (GES-1); test: CCK-8 cell viability: alleviation of proliferative toxicity of anti-tumor agents on GES-1 (Table 8-3); type: cell-based, human; conditions: NO-NSAID 100 μM
Procedure, shortened: as §1

[4] = system: human immortalized keratinocytes (HaCaT); test: CCK-8 cell viability: alleviation of proliferative toxicity of anti-tumor agents on HaCaT (Table 8-1); type: cell-based; conditions: NO-NSAID 100 μM, percentage increase in viable cells vs anti-tumor agent alone
Procedure, shortened: as §1

[5] = system: hand-foot syndrome induced by anti-tumor agents; test: Prevention of hand-foot syndrome induced by anti-tumor agents in rats, NO-NSAID ointment on hind paws (Table 2-2); type: in vivo, SD rats; conditions: Rattus norvegicus, topical, read-out: Control rate; for responders at 1 %: ointment 1% wt; for responders at 3 %: ointment 3% wt
Procedure, shortened: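 Female SD rats (8 weeks, ~200 g; 10/group) received anti-tumour agents by daily oral gavage in Cremophor EL:ethanol 1:1 diluted ~3× with PBS. NO-NSAID or blank ointment was applied to hind paws once daily, 4 h restrained, then wiped off. Control rate = blank-group minus treated-group hand-foot syndrome incidence.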

[6] = 120 h, Sorafenib 80 mg/kg once a day, Days 5
[7] = 432 h, Regorafenib 90 mg/kg once a day, Days 18

Q: Which results are given for CC(=O)Oc1ccccc1C(=O)OCOC(=O)CCCCCO[N+](=O)[O-] [Compound A3]?
A: Response rate % (average) ([1]; Afatinib (10 μM)): 26%; Response rate % (average) ([1]; Cabozantinib (5 μM)): 13%; Response rate % (average) ([1]; Dabrafenib (10 μM)): −8%; Response rate % (average) ([1]; Everolimus (5 μM)): 14%; Response rate % (average) ([1]; Infigratinib (15 μM)): 6%; Response rate % (average) ([1]; Lapatinib (5 μM)): 23%; Response rate % (average) ([1]; Lenvatinib (10 μM)): 25%; Response rate % (average) ([1]; Olmutinib (10 μM)): 29%; Response rate % (average) ([1]; Regorafenib (5 μM)): 29%; Response rate % (average) ([1]; Selumetinib (5 μM)): 29%; Response rate % (average) ([1]; Sorafenib (5 μM)): 26%; Response rate % (average) ([1]; Sunitinib (5 μM)): 25%; Response rate ([2]; Regorafenib 90 mg/kg once every two days, ointment 1% wt): 33.33%; Response rate ([2]; Sorafenib 80 mg/kg once every two days, ointment 3% wt): 42.86%; Response rate % (average) ([3]; Afatinib (10 μM)): 7%; Response rate % (average) ([3]; Cabozantinib (5 μM)): 14%; Response rate % (average) ([3]; Dabrafenib (10 μM)): 7%; Response rate % (average) ([3]; Everolimus (5 μM)): 19%; Response rate % (average) ([3]; Infigratinib (15 μM)): 28%; Response rate % (average) ([3]; Lapatinib (5 μM)): 20%; Response rate % (average) ([3]; Lenvatinib (10 μM)): 22%; Response rate % (average) ([3]; Olmutinib (10 μM)): 33%; Response rate % (average) ([3]; Regorafenib (5 μM)): 26%; Response rate % (average) ([3]; Selumetinib (5 μM)): 19%; Response rate % (average) ([3]; Sorafenib (5 μM)): 24%; Response rate % (average) ([3]; Sunitinib (5 μM)): 4%; Response rate % (average) ([4]; Afatinib (10 μM)): 24%; Response rate % (average) ([4]; Cabozantinib (5 μM)): 24%; Response rate % (average) ([4]; Dabrafenib (10 μM)): 3%; Response rate % (average) ([4]; Everolimus (5 μM)): −10%; Response rate % (average) ([4]; Infigratinib (15 μM)): 1%; Response rate % (average) ([4]; Lapatinib (5 μM)): 22%; Response rate % (average) ([4]; Lenvatinib (10 μM)): 0%; Response rate % (average) ([4]; Olmutinib (10 μM)): 37%; Response rate % (average) ([4]; Regorafenib (5 μM)): 33%; Response rate % (average) ([4]; Selumetinib (5 μM)): 20%; Response rate % (average) ([4]; Sorafenib (5 μM)): 33%; Response rate % (average) ([4]; Sunitinib (5 μM)): 19%; responders at 1 % [5, 6]: 50%; responders at 3 % [5, 6]: 57.1%; responders at 1 % [5, 7]: 42.9%; responders at 3 % [5, 7]: 71.4%

— patent US20250170090A1, “METHOD FOR PREVENTING OR TREATING DISEASE OR DISORDER ASSOCIATED WITH ANTINEOPLASTIC AGENT” (ONQUALITY PHARMACEUTICALS CHINA LTD., priority 2022, published 2025)
